Laboratory results as given in BindingDB's records for doi:10.1021/jm060797q (Teikyo University, 2006).

Assay: Antagonist activity against 1-alpha,25-dihydroxy vitamin D3-induced HL60 cell differentiation by NBT reduction method

| SMILES | IC50 [nM] |
| --- | --- |
| C=C1C(=O)O[C@H](C[C@@H](C)[C@H]2CC[C@H]3/C(=C/C=C4/C[C@@H](O)C[C@H](O)C4=C)CCC[C@]23C)[C@@H]1CCC | 6 |
| C=C1/C(=C\C=C2/CCC[C@]3(C)[C@@H]([C@H](C)C[C@H]4OC(=O)C(=C)[C@@H]4CCCC)CC[C@@H]23)C[C@@H](O)C[C@@H]1O | 8.2 |
| C=C1C(=O)O[C@H](C[C@@H](C)[C@H]2CC[C@H]3/C(=C/C=C4/C[C@@H](O)[C@H](C)[C@H](O)C4=C)CCC[C@]23C)[C@@H]1C | 8.1 |
| C=C1/C(=C\C=C2/CCC[C@]3(C)[C@@H]([C@H](C)C[C@@H]4OC(=O)C(=C)[C@H]4CC(C)C)CC[C@@H]23)C[C@@H](O)[C@H](C)[C@@H]1O | 11 |
| C=C1C(=O)O[C@H](C[C@@H](C)[C@H]2CC[C@H]3/C(=C/C=C4/C[C@@H](O)C[C@H](O)C4=C)CCC[C@]23C)[C@@H]1CC(C)C | 10 |
| C=C1/C(=C\C=C2/CCC[C@]3(C)[C@@H]([C@H](C)C[C@H]4OC(=O)C(=C)[C@@H]4CC)CC[C@@H]23)C[C@@H](O)C[C@@H]1O | 8.6 |
| C=C1/C(=C\C=C2/CCC[C@]3(C)[C@@H]([C@H](C)C[C@H]4OC(=O)C(=C)[C@@H]4CC(C)C)CC[C@@H]23)C[C@@H](O)[C@H](CCCO)[C@@H]1O | 9.3 |
| C=C1/C(=C\C=C2/CCC[C@]3(C)[C@@H]([C@H](C)C[C@@H]4OC(=O)C(=C)[C@@H]4CC(C)C)CC[C@@H]23)C[C@@H](O)[C@H](CCCO)[C@@H]1O | 9.3 |
| C=C1/C(=C\C=C2/CCC[C@]3(C)[C@@H]([C@H](C)C[C@@H]4OC(=O)C(=C)[C@@H]4C)CC[C@@H]23)C[C@@H](O)[C@H](CCCO)[C@@H]1O | 6.2 |
| C=C1/C(=C\C=C2/CCC[C@]3(C)[C@@H]([C@H](C)C[C@H]4OC(=O)C(=C)[C@H]4CC(C)C)CC[C@@H]23)C[C@@H](O)[C@H](C)[C@@H]1O | 11 |
| C=C1C(=O)O[C@@H](C[C@@H](C)[C@H]2CC[C@H]3/C(=C/C=C4/C[C@@H](O)[C@H](C)[C@H](O)C4=C)CCC[C@]23C)[C@@H]1C | 6.8 |
| C=C1/C(=C\C=C2/CCC[C@]3(C)[C@@H]([C@H](C)C[C@H]4OC(=O)C(=C)C4(C)C)CC[C@@H]23)C[C@@H](O)C[C@@H]1O | 6 |
| C=C1/C(=C\C=C2/CCC[C@]3(C)[C@@H]([C@H](C)C[C@@H]4OC(=O)C(=C)[C@@H]4CC(C)C)CC[C@@H]23)C[C@@H](O)[C@H](C)[C@@H]1O | 11 |
| C=C1C(=O)O[C@@H](C[C@@H](C)[C@H]2CC[C@H]3/C(=C/C=C4/C[C@@H](O)C[C@H](O)C4=C)CCC[C@]23C)[C@@H]1CCC | 6 |
| C=C1/C(=C\C=C2/CCC[C@]3(C)[C@@H]([C@H](C)C[C@H]4OC(=O)C(=C)[C@@H]4CC(C)C)CC[C@@H]23)C[C@@H](O)[C@H](C)[C@@H]1O | 11 |
| C=C1/C(=C\C=C2/CCC[C@]3(C)[C@@H]([C@H](C)C[C@@H]4OC(=O)C(=C)[C@@H]4CC)CC[C@@H]23)C[C@@H](O)C[C@@H]1O | 8.6 |
| C=C1/C(=C\C=C2/CCC[C@]3(C)[C@@H]([C@H](C)C[C@H]4OC(=O)C(=C)[C@@H]4CC(C)C)CC[C@@H]23)C[C@@H](O)C[C@@H]1O | 10 |

More lines, now with the values ahead:

| IC50 [nM] | SMILES |
| --- | --- |
| 6.7 | C=C1/C(=C\C=C2/CCC[C@]3(C)[C@@H]([C@H](C)C[C@@H]4OC(=O)C(=C)[C@H]4CCCC)CC[C@@H]23)C[C@@H](O)[C@H](C)[C@@H]1O |
| 8.4 | C=C1/C(=C\C=C2/CCC[C@]3(C)[C@@H]([C@H](C)C[C@@H]4OC(=O)C(=C)[C@H]4CC)CC[C@@H]23)C[C@@H](O)[C@H](CCCO)[C@@H]1O |
| 6.7 | C=C1/C(=C\C=C2/CCC[C@]3(C)[C@@H]([C@H](C)C[C@H]4OC(=O)C(=C)[C@@H]4CCCC)CC[C@@H]23)C[C@@H](O)[C@H](C)[C@@H]1O |
| 8.8 | C=C1/C(=C\C=C2/CCC[C@]3(C)[C@@H]([C@H](C)C[C@@H]4OC(=O)C(=C)[C@H]4CCCC)CC[C@@H]23)C[C@@H](O)[C@H](CCCO)[C@@H]1O |
| 8.4 | C=C1/C(=C\C=C2/CCC[C@]3(C)[C@@H]([C@H](C)C[C@H]4OC(=O)C(=C)[C@@H]4CC)CC[C@@H]23)C[C@@H](O)[C@H](OCCCO)[C@@H]1O |
| 6.3 | C=C1/C(=C\C=C2/CCC[C@]3(C)[C@@H]([C@H](C)C[C@H]4OC(=O)C(=C)[C@H]4CCC)CC[C@@H]23)C[C@@H](O)[C@H](CCCO)[C@@H]1O |
| 6.3 | C=C1/C(=C\C=C2/CCC[C@]3(C)[C@@H]([C@H](C)C[C@@H]4OC(=O)C(=C)[C@@H]4CCC)CC[C@@H]23)C[C@@H](O)[C@H](CCCO)[C@@H]1O |
| 8.4 | C=C1/C(=C\C=C2/CCC[C@]3(C)[C@@H]([C@H](C)C[C@H]4OC(=O)C(=C)[C@H]4CC)CC[C@@H]23)C[C@@H](O)[C@H](OCCCO)[C@@H]1O |
| 9.3 | C=C1/C(=C\C=C2/CCC[C@]3(C)[C@@H]([C@H](C)C[C@@H]4OC(=O)C(=C)[C@@H]4CC(C)C)CC[C@@H]23)C[C@@H](O)[C@H](OCCCO)[C@@H]1O |
| 6.1 | C=C1/C(=C\C=C2/CCC[C@]3(C)[C@@H]([C@H](C)C[C@@H]4OC(=O)C(=C)[C@@H]4C)CC[C@@H]23)C[C@@H](O)[C@H](OCCCO)[C@@H]1O |
| 8.4 | C=C1/C(=C\C=C2/CCC[C@]3(C)[C@@H]([C@H](C)C[C@H]4OC(=O)C(=C)[C@@H]4CC)CC[C@@H]23)C[C@@H](O)[C@H](CCCO)[C@@H]1O |
| 6.3 | C=C1/C(=C\C=C2/CCC[C@]3(C)[C@@H]([C@H](C)C[C@@H]4OC(=O)C(=C)[C@H]4CCC)CC[C@@H]23)C[C@@H](O)[C@H](OCCCO)[C@@H]1O |
| 9.3 | C=C1/C(=C\C=C2/CCC[C@]3(C)[C@@H]([C@H](C)C[C@H]4OC(=O)C(=C)[C@H]4CC(C)C)CC[C@@H]23)C[C@@H](O)[C@H](OCCCO)[C@@H]1O |
| 6.3 | C=C1/C(=C\C=C2/CCC[C@]3(C)[C@@H]([C@H](C)C[C@H]4OC(=O)C(=C)[C@@H]4CCC)CC[C@@H]23)C[C@@H](O)[C@H](CCCO)[C@@H]1O |
| 6.3 | C=C1/C(=C\C=C2/CCC[C@]3(C)[C@@H]([C@H](C)C[C@@H]4OC(=O)C(=C)[C@H]4CCC)CC[C@@H]23)C[C@@H](O)[C@H](CCCO)[C@@H]1O |
| 8.8 | C=C1/C(=C\C=C2/CCC[C@]3(C)[C@@H]([C@H](C)C[C@H]4OC(=O)C(=C)[C@@H]4CCCC)CC[C@@H]23)C[C@@H](O)[C@H](CCCO)[C@@H]1O |
| 8.4 | C=C1/C(=C\C=C2/CCC[C@]3(C)[C@@H]([C@H](C)C[C@@H]4OC(=O)C(=C)[C@@H]4CC)CC[C@@H]23)C[C@@H](O)[C@H](CCCO)[C@@H]1O |
| 8.4 | C=C1/C(=C\C=C2/CCC[C@]3(C)[C@@H]([C@H](C)C[C@@H]4OC(=O)C(=C)[C@@H]4CC)CC[C@@H]23)C[C@@H](O)[C@H](OCCCO)[C@@H]1O |
| 6.1 | C=C1/C(=C\C=C2/CCC[C@]3(C)[C@@H]([C@H](C)C[C@H]4OC(=O)C(=C)[C@@H]4C)CC[C@@H]23)C[C@@H](O)[C@H](OCCCO)[C@@H]1O |
| 6.7 | C=C1/C(=C\C=C2/CCC[C@]3(C)[C@@H]([C@H](C)C[C@H]4OC(=O)C(=C)[C@H]4CCCC)CC[C@@H]23)C[C@@H](O)[C@H](C)[C@@H]1O |
| 6.3 | C=C1/C(=C\C=C2/CCC[C@]3(C)[C@@H]([C@H](C)C[C@H]4OC(=O)C(=C)[C@H]4CCC)CC[C@@H]23)C[C@@H](O)[C@H](C)[C@@H]1O |
| 8.8 | C=C1/C(=C\C=C2/CCC[C@]3(C)[C@@H]([C@H](C)C[C@H]4OC(=O)C(=C)[C@H]4CCCC)CC[C@@H]23)C[C@@H](O)[C@H](CCCO)[C@@H]1O |
